Assay results published in patent US7181884B2, “Materials and methods for controlling pests” (University of Florida Research Foundation, Inc., priority 2001, dated 2007).
Like-named read-outs stand apart in the source and are kept apart here.

Experiments:
Aedes aegypti larvae = tested on: Aedes aegypti larvae
Description: Another experiment assessed the specificity of L-methionine compared to L-proline on Aedes aegypti survival. Mosquito larvae (third or fourth instar; N=240) were placed in water containing various concentrations of L-proline or L-methionine, and fed ad libitum with commercial dried fish food applied to the water.

CAATCH1 = CAATCH1 expressed in cell membranes; cited from earlier work
[1] = tested on: Leptinotarsa decemlineata larvae; conditions: whole eggplants sprayed, water vehicle
Description: Host growing whole eggplants in environmental growth chanmbers were sprayed with deionized water containing varying concentrations of methionine, then dried. Leptinotarsa decemlineata larvae (N=160 per group) were exposed to the leaves, and surviving larvae were counted daily.

[2] = tested on: Manduca sexta neonate larvae; conditions: all test doses, sprayed excised eggplant leaves, water vehicle
Description: (§1) Another study evaluated the Manduca larvae mortality on excised leaves of host plant (eggplant; Solanum melongena) that were sprayed with various concentrations of L-methionine dissolved in deionized water. Manduca sexta neonate larvae were initially reared on eggplants in Plexiglas cylinders. Larvae (total N=64/treatment) were exposed to eggplant leaves that were sprayed (then dried) with aqueous solutions of methionine.

[3] = tested on: eggplant; Solanum melongena; conditions: in vivo
Description: as §1

Manduca sexta larvae [4] = conditions: Silwet-L77
Experimental: In one study, leaves of eggplant (Solanum melongena) were sprayed with a deionized water/Silwet-L77 solution containing varying concentrations of methionine, then allowed to dry. The Silwet-L77 was prepared according to the manufacture's instructions. Manduca sexta larvae (N=400; 80 per methionine dose) were then exposed to the eggplant leaves during 10 days, and surviving larvae were counted daily.

[5] = tested on: Colorado potato beetle, Leptinotarsa decemlineata; conditions: field
Experimental: Eggplant (Solanum melongena) growing in an outside test field were treated with various concentrations of aqueous L-methionine solutions applied to the leaves, which were allowed to dry. Then larvae of Colorado potato beetle, Leptinotarsa decemlineata, were applied to the plants, and surviving larvae were counted daily.

Manduca sexta larvae [6] = conditions: 10% wt./wt. of dry diet components
Experimental: The effect of feeding L-methionine to Manduca sexta larvae as they progressed from the first through fifth instar stages was determined. Colonies of hornworms are commonly reared for research by well-accepted techniques that account for environmental conditions such as feed availability, daily photoperiod, temperature, etc. The caterpillars were obtained from Carolina Biological Supply Co. and were placed in a lighted 27° C. incubator and fed hydrated reconstituted Dry Tobacco Hornworm Medium Stock No. L-908D (Carolina Biological Supply Co., Burlington, N.C.) supplemented with or without (control) L-methionine supplementation.
The effect of feeding L-methionine to Manduca sexta larvae as they progressed from the first through fifth instar stages was studied. In one study, the caterpillars were placed in a 27° C. incubator (photoperiod 16 hours light, 8 hours dark; relative humidity 60%) and fed a hydrated standard defined hornworm diet without (control) or with L-methionine supplementation (10% wt./wt. of dry components).

[7] = tested on: eggplant (Solanum melongena); conditions: in vivo
Description: Host eggplant (Solanum melongena) growing in fields were sprayed with deionized water containing varying concentrations of methionine, then dried.

SMILES	effect on larvae survival compared to 0% methionine control (Aedes aegypti larvae; all test days, P≧0.05)	CAATCH1-associated voltage-dependent amino acid-elicited steady state inward cation currents (CAATCH1)	methionine concentration at which complete mortality was attained [1] [%]	larvae dead [2] [%]	plant viability [3]	time to reach complete mortality (Manduca sexta larvae [4]; leaves treated with 0.31% methionine) [days]	time to reach complete mortality (Manduca sexta larvae [4]; leaves treated with 0.45% (w/w) methionine) [days]	efficacy of lowest concentration attempted ([5]; 0.06% (w/w on leaves))	larvae mortality versus concentration ([5]; various concentrations)	larval development (Manduca sexta larvae [6])	larvae killed (Manduca sexta larvae [6]; within 3 days) [%]	larvae killed (Aedes aegypti larvae; 0.7% methionine in water, day 3) [%]	LD50 (Aedes aegypti larvae; day 2) [% methionine]	LD50 (Aedes aegypti larvae; day 3) [% methionine]	fruit yield mean numbers or mean weights [7]
O=C(O)[C@@H]1CCCN1 [L-proline, reference compound]	no effect														
CSCC[C@H](N)C(=O)O [L-methionine]		blocked	≤ 0.15	100	plant viability was not affected	4	2	efficacious	increased in a dose-dependent manner	prevented all the caterpillars from advancing in development	100	100	~0.5	~0.3	not significantly different from control
